Columns and labels:
[1] = biological target: T1, Peroxisome proliferator-activated receptor gamma (Homo sapiens, UniProt P37231)
T1 sequence (P37231 whole entry): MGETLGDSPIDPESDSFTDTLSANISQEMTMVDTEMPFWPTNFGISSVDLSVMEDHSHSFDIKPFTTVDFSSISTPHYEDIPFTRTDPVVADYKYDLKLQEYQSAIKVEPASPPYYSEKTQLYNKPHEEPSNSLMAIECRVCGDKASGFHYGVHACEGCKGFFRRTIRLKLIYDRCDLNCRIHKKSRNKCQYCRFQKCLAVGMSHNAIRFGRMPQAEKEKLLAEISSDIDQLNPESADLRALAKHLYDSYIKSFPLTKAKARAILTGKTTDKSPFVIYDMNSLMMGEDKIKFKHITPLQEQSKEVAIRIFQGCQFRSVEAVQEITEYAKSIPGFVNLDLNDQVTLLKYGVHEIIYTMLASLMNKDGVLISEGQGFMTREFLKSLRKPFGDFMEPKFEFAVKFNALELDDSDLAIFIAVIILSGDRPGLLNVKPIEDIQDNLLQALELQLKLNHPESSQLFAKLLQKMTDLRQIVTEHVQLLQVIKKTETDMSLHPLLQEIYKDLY
Description: Binding affinity to human Peroxisome proliferator activated receptor gamma using scintillation proximity assay

[2] = biological target: T1, Peroxisome proliferator-activated receptor gamma; remark: listed apart in the source
Description: Maximal reporter activity against human Peroxisome proliferator activated receptor gamma Gal4 chimeric in transiently transfected CV-1 cells by functional assay.

[3] = biological target: T2, Peroxisome proliferator-activated receptor alpha (Homo sapiens, UniProt Q07869); assay: Maximal reporter activity against human Peroxisome proliferator activated receptor alpha Gal4 chimeric in transiently transfected CV-1 cells by functional assay.; format: cell-based
T2 sequence (Q07869 whole entry): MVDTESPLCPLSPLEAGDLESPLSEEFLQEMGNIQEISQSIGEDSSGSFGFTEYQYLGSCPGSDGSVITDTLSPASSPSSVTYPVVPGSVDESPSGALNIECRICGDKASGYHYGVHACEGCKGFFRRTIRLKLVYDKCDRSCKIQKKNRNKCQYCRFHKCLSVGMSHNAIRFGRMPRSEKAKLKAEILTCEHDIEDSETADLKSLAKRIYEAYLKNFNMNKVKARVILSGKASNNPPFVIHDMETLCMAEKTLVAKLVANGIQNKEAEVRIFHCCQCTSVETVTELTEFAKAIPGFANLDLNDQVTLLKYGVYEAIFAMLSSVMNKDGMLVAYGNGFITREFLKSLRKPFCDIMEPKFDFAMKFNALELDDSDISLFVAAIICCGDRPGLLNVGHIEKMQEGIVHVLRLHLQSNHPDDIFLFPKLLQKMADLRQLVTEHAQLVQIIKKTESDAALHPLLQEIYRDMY

Rattus norvegicus [4] = assay: In vivo efficacy expressed as reduction in fasting plasma glucose at a dose of 10 mg/kg, oral, for 14 days in male rats; format: functional
[5] = biological target: T3, Peroxisome proliferator-activated receptor delta (Homo sapiens, UniProt Q03181); assay: Concentration that gave 50% of maximal reporter activity against human Peroxisome proliferator activated receptor delta Gal4 chimeric in transiently transfected CV-1 cells by functional assay.; format: cell-based
T3 sequence (Q03181 whole entry): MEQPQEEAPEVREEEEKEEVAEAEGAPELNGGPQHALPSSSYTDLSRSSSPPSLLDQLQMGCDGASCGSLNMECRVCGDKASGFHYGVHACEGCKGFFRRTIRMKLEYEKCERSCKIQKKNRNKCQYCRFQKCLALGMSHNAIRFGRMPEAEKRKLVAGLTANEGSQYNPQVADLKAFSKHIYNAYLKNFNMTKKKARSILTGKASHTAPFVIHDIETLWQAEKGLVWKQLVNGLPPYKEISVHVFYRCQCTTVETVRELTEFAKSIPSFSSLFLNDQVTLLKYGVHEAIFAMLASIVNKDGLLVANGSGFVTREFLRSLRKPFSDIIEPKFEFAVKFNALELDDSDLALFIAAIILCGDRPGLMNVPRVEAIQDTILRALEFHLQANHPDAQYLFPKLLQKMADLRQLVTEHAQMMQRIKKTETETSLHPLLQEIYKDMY

Rattus norvegicus [6] = assay: In vivo efficacy expressed as reduction in fasting serum triglycerides at a dose of 10 mg/kg, oral, for 14 days in male rats; format: functional
Rattus norvegicus [7] = assay: In vivo efficacy expressed as increase in HDL-cholesterol after at a dose of 10 mg/kg, oral, for 14 days in male rats; format: functional
[8] = biological target: T3, Peroxisome proliferator-activated receptor delta; assay: Binding affinity to bind to human Peroxisome proliferator activated receptor delta using scintillation proximity assay

Ki [1] [nM] | EC50 [2] [nM] | Structure (SMILES) | also measured
2100 | 5000 | CN[C@@H](Cc1ccc(OCCc2nc(-c3ccccc3)oc2C)cc1)C(=O)O | 
850 | 410 | Cc1oc(-c2ccccc2)nc1CCOc1ccc(C[C@@H](C(=O)O)N(C)C)cc1 | 
2600 | 3500 | CC(=O)N[C@@H](Cc1ccc(OCCc2nc(-c3ccccc3)oc2C)cc1)C(=O)O | 
980 | 710 | Cc1oc(-c2ccccc2)nc1CCOc1ccc(C[C@@H](C(=O)O)n2c(C)ccc2C)cc1 | 

More lines, now with the values behind:

Structure (SMILES) | Ki [1] [nM] | EC50 [2] [nM] | also measured
Cc1oc(-c2ccccc2)nc1CCOc1ccc(C[C@@H](C(=O)O)N2CCCC2)cc1 | 360 | 390 | 
Cc1oc(-c2ccccc2)nc1CCOc1ccc(C[C@@H](C(=O)O)N2CCOCC2)cc1 | 158 | 24 | EC50 [3]: 6900 nM
Cc1oc(-c2ccccc2)nc1CCOc1ccc(C[C@@H](C(=O)O)n2cccc2)cc1 |  |  | Reduction (Rattus norvegicus [4]): 40%; EC50 [5]: 3800 nM; Reduction (Rattus norvegicus [6]): 24%; Increase (Rattus norvegicus [7]): 31%; Ki [8]: 2500 nM
Cc1oc(-c2ccccc2)nc1CCOc1ccc(C[C@@H](C(=O)O)N2CCCCC2)cc1 | 480 | 138 | 
Cc1oc(-c2ccccc2)nc1CCOc1ccc(C[C@H](Nc2ccccc2C(=O)c2ccccc2)C(=O)O)cc1 [FARGLITAZAR] |  |  | Ki [8]: 1200 nM
Cc1oc(-c2ccccc2)nc1CCOc1ccc(C[C@H](Nc2ncccn2)C(=O)O)cc1 | 280 | 590 | 
Cc1oc(-c2ccccc2)nc1CCOc1ccc(C[C@H](NS(C)(=O)=O)C(=O)O)cc1 | 620 | 2600 | 
CCCN[C@@H](Cc1ccc(OCCc2nc(-c3ccccc3)oc2C)cc1)C(=O)O | 52 | 240 | 
